In patent US11208412B2 (DAEGU-GYEONGBUK MEDICAL INNOVATION FOUNDATION, priority 2017, dated 2021):

Key:
Assay in all cases: Kinase selectivity, DiscoverX scanMAX Kinase assay panel (% control)
Type in all cases: binding
[1] = target: T1, kinases of the scanMAX Kinase assay panel (Homo sapiens, UniProt P07949, V804L); conditions: kinase RET(V804L); 1 uM in DMSO
T1 construct: purchased DiscoverX Co. (contract measurement) scanMAX Kinase assay panel
Procedure, shortened: (§1)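 Percent of control computed as (compound − positive control)/(negative control − positive control) × 100, DMSO defining 100% and positive control 0%. Each panel kinase exposed to 1 uM compound; values under 35% taken to mean the compound acts on that kinase.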

[2] = target: T2, kinases of the scanMAX Kinase assay panel (Homo sapiens, UniProt P0C1S8); conditions: kinase WEE2; 1 uM in DMSO
T2 construct: purchased DiscoverX Co. (contract measurement) scanMAX Kinase assay panel
Procedure, shortened: as §1

[3] = target: T3, kinases of the scanMAX Kinase assay panel (Homo sapiens, UniProt P23458); conditions: 1 uM
T3 construct: purchased DiscoverX Co. (contract measurement) scanMAX Kinase assay panel
Procedure, shortened: as §1

[4] = target: T4, kinases of the scanMAX Kinase assay panel (Homo sapiens, UniProt P29376); conditions: LTK; 1 uM
T4 construct: purchased DiscoverX Co. (contract measurement) scanMAX Kinase assay panel
Procedure, shortened: as §1

[5] = target: T5, kinases of the scanMAX Kinase assay panel (Homo sapiens, UniProt Q00535); conditions: CDK5; 1 uM
T5 construct: purchased DiscoverX Co. (contract measurement) scanMAX Kinase assay panel
Procedure, shortened: as §1

[6] = target: T6, kinases of the scanMAX Kinase assay panel (Homo sapiens, UniProt Q13464); conditions: kinase ROCK1; 1 uM in DMSO
T6 construct: purchased DiscoverX Co. (contract measurement) scanMAX Kinase assay panel
Procedure, shortened: as §1

[7] = target: T7, kinases of the scanMAX Kinase assay panel (Homo sapiens, UniProt Q13546); conditions: kinase RIPK1; 1 uM in DMSO
T7 construct: purchased DiscoverX Co. (contract measurement) scanMAX Kinase assay panel
T7 sequence (Q13546 1-671): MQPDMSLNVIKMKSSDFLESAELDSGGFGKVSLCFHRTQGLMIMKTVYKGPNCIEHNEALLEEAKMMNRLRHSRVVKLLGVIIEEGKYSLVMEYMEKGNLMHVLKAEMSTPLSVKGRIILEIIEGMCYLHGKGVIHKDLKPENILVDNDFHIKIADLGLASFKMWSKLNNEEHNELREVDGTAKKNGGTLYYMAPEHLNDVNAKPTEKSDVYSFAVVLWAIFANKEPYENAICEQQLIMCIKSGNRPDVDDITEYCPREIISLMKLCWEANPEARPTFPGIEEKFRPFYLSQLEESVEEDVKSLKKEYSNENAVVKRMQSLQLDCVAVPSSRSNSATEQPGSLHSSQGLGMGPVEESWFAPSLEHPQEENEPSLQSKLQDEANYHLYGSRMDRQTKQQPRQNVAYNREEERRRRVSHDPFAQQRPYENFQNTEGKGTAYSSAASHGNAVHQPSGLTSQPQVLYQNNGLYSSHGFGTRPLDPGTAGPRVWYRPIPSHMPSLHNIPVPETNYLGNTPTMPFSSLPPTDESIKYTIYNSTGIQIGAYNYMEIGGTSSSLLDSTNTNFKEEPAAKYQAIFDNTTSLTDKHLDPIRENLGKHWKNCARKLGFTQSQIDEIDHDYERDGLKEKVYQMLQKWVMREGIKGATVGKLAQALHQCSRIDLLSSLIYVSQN
Procedure, shortened: as §1

[8] = target: T8, kinases of the scanMAX Kinase assay panel (Homo sapiens, UniProt Q16832); conditions: DDR2; 1 uM
T8 construct: purchased DiscoverX Co. (contract measurement) scanMAX Kinase assay panel
T8 sequence (Q16832 22-855): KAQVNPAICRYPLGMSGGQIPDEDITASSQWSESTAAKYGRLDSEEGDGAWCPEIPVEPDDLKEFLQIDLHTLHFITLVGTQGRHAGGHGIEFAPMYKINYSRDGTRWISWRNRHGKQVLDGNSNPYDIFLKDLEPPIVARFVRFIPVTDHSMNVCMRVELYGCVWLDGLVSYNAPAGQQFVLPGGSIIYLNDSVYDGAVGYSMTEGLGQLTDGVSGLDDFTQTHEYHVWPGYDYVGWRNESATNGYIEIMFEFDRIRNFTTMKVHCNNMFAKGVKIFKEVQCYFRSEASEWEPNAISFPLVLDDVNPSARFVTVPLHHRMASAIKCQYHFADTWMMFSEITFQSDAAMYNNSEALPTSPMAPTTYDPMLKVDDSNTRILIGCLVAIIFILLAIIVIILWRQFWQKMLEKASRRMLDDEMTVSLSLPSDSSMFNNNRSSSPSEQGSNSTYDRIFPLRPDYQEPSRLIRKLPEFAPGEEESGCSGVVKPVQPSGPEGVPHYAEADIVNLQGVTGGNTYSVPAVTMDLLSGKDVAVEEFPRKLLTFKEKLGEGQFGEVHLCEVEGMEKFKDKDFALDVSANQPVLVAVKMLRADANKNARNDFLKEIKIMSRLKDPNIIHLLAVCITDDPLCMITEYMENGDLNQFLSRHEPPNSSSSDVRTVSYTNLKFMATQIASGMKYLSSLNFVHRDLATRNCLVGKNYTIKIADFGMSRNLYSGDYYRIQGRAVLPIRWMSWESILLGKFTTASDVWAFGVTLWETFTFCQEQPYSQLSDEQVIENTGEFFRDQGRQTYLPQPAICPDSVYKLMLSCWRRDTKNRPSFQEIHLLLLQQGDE
Procedure, shortened: as §1

[9] = target: T9, kinases of the scanMAX Kinase assay panel (Homo sapiens, UniProt Q86Z02); conditions: HIPK1; 1 uM
T9 construct: purchased DiscoverX Co. (contract measurement) scanMAX Kinase assay panel
Procedure, shortened: as §1

[10] = target: T10, kinases of the scanMAX Kinase assay panel (Homo sapiens, UniProt Q8N5S9); conditions: CAMKK1; 1 uM
T10 construct: purchased DiscoverX Co. (contract measurement) scanMAX Kinase assay panel
Procedure, shortened: as §1

[11] = target: T11, kinases of the scanMAX Kinase assay panel (Homo sapiens, UniProt Q96SB4); conditions: kinase SRPK1; 1 uM in DMSO
T11 construct: purchased DiscoverX Co. (contract measurement) scanMAX Kinase assay panel
Procedure, shortened: as §1

[12] = target: T12, kinases of the scanMAX Kinase assay panel (Homo sapiens, UniProt Q9HC98); conditions: NEK6; 1 uM
T12 construct: purchased DiscoverX Co. (contract measurement) scanMAX Kinase assay panel
Procedure, shortened: as §1

[13] = target: T13, kinases of the scanMAX Kinase assay panel (Homo sapiens, UniProt Q9HCP0); conditions: CSNK1G1; 1 uM
T13 construct: purchased DiscoverX Co. (contract measurement) scanMAX Kinase assay panel
Procedure, shortened: as §1

[14] = target: T14, kinases of the scanMAX Kinase assay panel (Homo sapiens, UniProt Q9P289); conditions: MST4; 1 uM
T14 construct: purchased DiscoverX Co. (contract measurement) scanMAX Kinase assay panel
Procedure, shortened: as §1

T14 sequence (Q9P289 whole entry): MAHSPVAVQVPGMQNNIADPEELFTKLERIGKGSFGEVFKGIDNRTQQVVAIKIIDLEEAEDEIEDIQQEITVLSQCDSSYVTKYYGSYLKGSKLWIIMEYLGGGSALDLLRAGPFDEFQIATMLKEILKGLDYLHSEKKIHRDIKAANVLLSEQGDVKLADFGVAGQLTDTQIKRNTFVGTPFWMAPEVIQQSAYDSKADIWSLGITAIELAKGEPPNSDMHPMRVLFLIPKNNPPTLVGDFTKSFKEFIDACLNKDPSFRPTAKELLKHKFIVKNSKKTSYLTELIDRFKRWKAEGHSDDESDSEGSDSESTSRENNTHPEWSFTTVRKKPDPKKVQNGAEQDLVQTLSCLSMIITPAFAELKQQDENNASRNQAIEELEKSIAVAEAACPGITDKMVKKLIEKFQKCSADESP
T1 sequence (P07949 29-1114 V804L): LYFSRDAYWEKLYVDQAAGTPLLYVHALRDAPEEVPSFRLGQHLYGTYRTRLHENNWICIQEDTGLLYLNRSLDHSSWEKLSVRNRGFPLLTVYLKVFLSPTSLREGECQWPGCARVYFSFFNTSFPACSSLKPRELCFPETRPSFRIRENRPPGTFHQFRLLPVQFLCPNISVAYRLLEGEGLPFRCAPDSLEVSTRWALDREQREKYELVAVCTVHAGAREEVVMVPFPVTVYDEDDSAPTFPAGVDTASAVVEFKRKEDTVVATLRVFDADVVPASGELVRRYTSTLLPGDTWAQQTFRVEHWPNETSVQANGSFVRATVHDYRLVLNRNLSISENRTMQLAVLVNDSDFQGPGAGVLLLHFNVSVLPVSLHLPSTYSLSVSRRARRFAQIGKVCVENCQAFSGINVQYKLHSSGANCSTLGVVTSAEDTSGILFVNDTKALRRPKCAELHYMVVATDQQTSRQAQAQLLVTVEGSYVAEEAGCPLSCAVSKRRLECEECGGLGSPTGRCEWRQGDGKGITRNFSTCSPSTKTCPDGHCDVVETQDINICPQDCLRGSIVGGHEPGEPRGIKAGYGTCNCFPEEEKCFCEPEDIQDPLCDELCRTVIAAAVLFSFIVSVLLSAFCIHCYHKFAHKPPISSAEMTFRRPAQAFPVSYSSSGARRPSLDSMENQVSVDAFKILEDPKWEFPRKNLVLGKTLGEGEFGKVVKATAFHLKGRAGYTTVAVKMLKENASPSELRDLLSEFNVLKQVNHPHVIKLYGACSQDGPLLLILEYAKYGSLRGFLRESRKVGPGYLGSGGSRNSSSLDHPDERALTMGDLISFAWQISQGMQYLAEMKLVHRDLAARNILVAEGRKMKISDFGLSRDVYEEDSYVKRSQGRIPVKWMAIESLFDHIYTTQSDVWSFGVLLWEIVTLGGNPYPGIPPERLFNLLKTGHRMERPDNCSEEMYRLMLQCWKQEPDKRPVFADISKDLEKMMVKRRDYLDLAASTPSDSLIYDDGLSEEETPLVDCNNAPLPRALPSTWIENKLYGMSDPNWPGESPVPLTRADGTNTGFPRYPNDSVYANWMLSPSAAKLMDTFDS
T6 sequence (Q13464 whole entry): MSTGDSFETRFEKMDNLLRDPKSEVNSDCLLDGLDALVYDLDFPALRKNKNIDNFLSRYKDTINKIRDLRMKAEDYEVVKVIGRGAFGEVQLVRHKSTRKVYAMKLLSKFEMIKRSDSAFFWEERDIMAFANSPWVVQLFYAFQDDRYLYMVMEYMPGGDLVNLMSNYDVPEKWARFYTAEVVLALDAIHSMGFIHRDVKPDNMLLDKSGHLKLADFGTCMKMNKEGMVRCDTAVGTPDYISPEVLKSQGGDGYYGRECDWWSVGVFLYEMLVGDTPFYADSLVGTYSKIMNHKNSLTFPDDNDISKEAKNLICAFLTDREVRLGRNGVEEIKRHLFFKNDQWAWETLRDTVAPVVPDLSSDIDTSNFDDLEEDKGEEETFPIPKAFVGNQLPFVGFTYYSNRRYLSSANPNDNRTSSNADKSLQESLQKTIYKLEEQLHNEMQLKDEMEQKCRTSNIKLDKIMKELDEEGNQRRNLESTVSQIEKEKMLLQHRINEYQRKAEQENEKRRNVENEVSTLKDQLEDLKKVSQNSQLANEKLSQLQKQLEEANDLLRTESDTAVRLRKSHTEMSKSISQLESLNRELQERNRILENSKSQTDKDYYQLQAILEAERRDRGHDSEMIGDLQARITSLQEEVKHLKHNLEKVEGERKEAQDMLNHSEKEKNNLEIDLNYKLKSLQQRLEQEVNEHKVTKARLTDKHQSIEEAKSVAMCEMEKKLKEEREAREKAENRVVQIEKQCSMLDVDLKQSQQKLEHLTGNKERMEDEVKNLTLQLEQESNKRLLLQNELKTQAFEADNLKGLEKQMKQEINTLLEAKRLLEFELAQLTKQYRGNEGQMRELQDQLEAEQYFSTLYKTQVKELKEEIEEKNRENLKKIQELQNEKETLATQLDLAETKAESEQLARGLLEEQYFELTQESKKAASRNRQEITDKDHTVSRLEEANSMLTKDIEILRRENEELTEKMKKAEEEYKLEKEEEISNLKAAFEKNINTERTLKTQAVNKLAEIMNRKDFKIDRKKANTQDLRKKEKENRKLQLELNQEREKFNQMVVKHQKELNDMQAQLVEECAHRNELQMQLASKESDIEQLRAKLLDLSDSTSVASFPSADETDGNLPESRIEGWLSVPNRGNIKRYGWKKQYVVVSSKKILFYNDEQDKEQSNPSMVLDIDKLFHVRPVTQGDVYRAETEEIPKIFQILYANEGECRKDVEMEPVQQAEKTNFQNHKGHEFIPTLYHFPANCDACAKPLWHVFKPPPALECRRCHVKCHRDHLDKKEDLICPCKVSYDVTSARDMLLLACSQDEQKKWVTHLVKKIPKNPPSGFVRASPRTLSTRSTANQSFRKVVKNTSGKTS
T9 sequence (Q86Z02 whole entry): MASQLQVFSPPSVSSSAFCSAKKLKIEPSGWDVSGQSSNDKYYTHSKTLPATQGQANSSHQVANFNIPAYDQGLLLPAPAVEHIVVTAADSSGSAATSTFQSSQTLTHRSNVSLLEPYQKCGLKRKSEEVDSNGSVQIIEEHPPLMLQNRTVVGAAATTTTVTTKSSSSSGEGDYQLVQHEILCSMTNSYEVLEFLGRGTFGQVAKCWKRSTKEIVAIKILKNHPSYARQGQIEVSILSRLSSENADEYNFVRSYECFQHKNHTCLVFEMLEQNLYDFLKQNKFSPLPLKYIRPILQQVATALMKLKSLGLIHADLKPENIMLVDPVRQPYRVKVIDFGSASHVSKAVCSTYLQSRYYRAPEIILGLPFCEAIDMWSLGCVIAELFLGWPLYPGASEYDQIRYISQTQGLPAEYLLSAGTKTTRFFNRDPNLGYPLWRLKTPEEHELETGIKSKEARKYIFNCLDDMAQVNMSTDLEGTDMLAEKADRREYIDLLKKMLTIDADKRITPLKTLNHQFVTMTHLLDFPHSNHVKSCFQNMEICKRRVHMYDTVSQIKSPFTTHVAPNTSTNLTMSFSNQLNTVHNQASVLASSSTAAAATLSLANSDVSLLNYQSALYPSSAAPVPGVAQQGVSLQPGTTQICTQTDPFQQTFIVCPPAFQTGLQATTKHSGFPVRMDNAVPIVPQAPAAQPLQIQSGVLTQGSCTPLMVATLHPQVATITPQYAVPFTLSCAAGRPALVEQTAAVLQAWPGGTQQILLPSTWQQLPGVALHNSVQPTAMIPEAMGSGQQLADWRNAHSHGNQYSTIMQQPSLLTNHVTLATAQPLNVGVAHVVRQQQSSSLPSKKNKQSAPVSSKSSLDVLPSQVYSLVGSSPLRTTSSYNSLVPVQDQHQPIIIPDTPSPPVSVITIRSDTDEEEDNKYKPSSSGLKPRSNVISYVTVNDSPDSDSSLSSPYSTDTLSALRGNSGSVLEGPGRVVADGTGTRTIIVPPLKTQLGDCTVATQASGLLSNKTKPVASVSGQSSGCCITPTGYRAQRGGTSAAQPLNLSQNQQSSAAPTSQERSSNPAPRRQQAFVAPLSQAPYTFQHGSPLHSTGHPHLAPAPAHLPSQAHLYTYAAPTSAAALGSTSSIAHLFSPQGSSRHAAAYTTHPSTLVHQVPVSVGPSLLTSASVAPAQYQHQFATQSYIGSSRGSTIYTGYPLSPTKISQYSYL
T2 sequence (P0C1S8 whole entry): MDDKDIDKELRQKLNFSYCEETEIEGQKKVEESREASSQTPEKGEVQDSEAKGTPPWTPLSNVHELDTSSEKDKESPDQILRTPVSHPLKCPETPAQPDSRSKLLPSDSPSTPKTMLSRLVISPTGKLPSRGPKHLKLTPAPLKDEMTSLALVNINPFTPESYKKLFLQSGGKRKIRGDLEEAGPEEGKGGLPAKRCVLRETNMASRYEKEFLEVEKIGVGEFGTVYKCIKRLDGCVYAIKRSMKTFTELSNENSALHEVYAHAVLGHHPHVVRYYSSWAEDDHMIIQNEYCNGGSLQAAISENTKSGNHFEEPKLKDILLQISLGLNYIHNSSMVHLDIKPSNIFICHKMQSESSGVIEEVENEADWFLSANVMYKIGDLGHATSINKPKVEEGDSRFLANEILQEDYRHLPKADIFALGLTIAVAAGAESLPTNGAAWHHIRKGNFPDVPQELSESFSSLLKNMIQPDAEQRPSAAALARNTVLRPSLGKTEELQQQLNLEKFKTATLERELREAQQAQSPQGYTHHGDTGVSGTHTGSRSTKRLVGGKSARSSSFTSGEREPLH
T13 sequence (Q9HCP0 whole entry): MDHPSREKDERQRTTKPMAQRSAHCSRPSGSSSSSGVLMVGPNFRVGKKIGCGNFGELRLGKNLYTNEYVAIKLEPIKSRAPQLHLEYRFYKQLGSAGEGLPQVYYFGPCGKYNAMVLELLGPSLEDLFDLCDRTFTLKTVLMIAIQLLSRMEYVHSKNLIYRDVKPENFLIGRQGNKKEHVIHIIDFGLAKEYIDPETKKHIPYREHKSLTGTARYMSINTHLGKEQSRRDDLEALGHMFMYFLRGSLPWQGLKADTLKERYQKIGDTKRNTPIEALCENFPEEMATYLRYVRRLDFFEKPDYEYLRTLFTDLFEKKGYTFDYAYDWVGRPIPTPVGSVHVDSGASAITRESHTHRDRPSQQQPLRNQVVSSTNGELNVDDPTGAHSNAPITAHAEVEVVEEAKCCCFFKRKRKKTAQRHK

Row | Compound | remaining binding at 1 µM [1] [%] | remaining binding at 1 µM [2] [%] | remaining binding at 1 µM ([3]; JAK1(JH1domain-catalytic)) [%] | remaining binding at 1 µM ([3]; JAK1(JH2domain-pseudokinase)) [%] | remaining binding at 1 µM [4] [%] | remaining binding at 1 µM [5] [%] | remaining binding at 1 µM [6] [%] | remaining binding at 1 µM [7] [%] | remaining binding at 1 µM [8] [%] | remaining binding at 1 µM [9] [%] | remaining binding at 1 µM [10] [%] | remaining binding at 1 µM [11] [%] | remaining binding at 1 µM [12] [%] | remaining binding at 1 µM [13] [%] | remaining binding at 1 µM [14] [%]
1 | CCNc1nc(Nc2ccc(C(=O)N3CCC(N4CCOCC4)CC3)cc2OC)nc2[nH]cc(C(F)(F)F)c12 [Example 104, (4-((4-(ethylamino)-5-(trifluoromethyl)-7H-pyrrolo[2,3-d]pyrimidine-2-yl)amino)-3-methoxyphenyl)(4-morpholinopiperidine-1-yl)methanone] | 89 | 100 | 100 | 55 | 3.7 | 100 | 100 | 100 | 100 | 13 | 14 | 100 | 100 | 73 | 100
2 | CNc1nc(Nc2ccc(C(=O)N3CCOCC3)cc2OC)nc2[nH]cc(C#N)c12 [Example 1, 2-((2-methoxy-4-(morpholine-4-carbonyl)phenyl)amino)-4-(methylamino)-7H-pyrrolo[2,3-d]pyrimidine-5-carbonitrile] | 79 | 100 | 92 | 14 | 6.8 | 96 | 64 | 94 | 96 | 61 | 81 | 66 | 95 | 95 | 69
3 | CC1(Nc2nc(Nc3cnn([C@H]4CCN(C5COC5)C[C@@H]4F)c3Cl)nc3[nH]cc(C#N)c23)CC1 [Example 52, 2-((5-chloro-1-((3S,4S)-3-fluoro-1-(oxetane-3-yl)piperidine-4-yl)-1H-pyrazole-4-yl)amino)((1-methylcyclopropyl)amino)-7H-pyrrolo[2,3-d]pyrimidine-5-carbonitrile] | 0 | 100 | 44 | 0 | 3.4 | 63 | 28 | 14 | 20 | 18 | 21 | 0.05 | 93 | 6.4 | 28
